According to ChEMBL document CHEMBL5696441 (Nat Chem Biol, 2011):

Legend:
[1] = target: T1, Ephrin type-A receptor 1 (Homo sapiens) (UniProt P21709); experiment: Inhibition of human EPHA1 assessed as residual activity at 1 uM using polyEY as substrate in presence of 33P-ATP by ProQinase assay relative to control
T1 sequence (whole entry): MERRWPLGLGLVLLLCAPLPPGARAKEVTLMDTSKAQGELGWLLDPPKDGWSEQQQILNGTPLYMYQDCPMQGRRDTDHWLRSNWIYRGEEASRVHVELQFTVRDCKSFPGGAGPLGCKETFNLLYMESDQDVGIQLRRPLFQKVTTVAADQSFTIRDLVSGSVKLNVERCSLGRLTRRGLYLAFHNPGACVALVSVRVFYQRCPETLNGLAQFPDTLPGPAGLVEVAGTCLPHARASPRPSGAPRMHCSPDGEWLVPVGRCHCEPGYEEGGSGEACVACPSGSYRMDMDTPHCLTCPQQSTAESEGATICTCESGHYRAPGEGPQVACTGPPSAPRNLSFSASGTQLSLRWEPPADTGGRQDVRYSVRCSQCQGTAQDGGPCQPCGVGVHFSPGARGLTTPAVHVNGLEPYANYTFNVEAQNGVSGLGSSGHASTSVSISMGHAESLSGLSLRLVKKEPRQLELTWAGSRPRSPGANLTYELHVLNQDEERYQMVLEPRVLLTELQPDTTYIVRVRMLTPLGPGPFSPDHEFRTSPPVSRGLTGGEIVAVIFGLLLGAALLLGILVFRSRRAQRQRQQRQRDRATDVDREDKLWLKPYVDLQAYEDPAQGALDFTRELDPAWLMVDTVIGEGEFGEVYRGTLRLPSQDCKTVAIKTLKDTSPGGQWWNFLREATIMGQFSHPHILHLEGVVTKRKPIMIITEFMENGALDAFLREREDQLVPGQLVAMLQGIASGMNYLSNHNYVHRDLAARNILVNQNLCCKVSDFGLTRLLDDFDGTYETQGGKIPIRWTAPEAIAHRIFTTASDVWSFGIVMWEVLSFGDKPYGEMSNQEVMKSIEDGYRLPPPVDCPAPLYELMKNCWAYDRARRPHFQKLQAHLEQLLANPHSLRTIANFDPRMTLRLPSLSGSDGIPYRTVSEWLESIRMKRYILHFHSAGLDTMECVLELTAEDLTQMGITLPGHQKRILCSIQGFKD

[2] = target: Ephrin type-A receptor 5 (Homo sapiens) (UniProt P54756); experiment: Inhibition of EPHA5 (unknown origin) assessed as remaining activity at 1 uM by Kinome scan method relative to control
[3] = target: Glycogen synthase kinase-3 beta (Homo sapiens) (UniProt P49841); experiment: Inhibition of human GSK3beta assessed as residual activity at 1 uM using RBER-CHKtide as substrate in presence of 33P-ATP by ProQinase assay relative to control
[4] = target: Protein-tyrosine kinase 2-beta (Homo sapiens) (UniProt Q14289); experiment: Inhibition of human PYK2 assessed as residual activity at 1 uM using polyEY as substrate in presence of 33P-ATP by ProQinase assay relative to control
[5] = target: Ephrin type-A receptor 4 (Homo sapiens) (UniProt P54764); experiment: Inhibition of human EPHA4 assessed as residual activity at 1 uM using polyEY as substrate in presence of 33P-ATP by ProQinase assay relative to control
[6] = Anti-inflammatory activity against human derived high respond PBMC cells assessed as inhibition in stimulated IL-6 cytokine release incubated for 2 hrs in the presence of LPS/SEB/aCD28 by Luminex based sandwich immunoassay; format: functional, cell-based
[7] = target: Serine/threonine-protein kinase PAK 6 (Homo sapiens) (UniProt Q9NQU5); experiment: Inhibition of human PAK6 assessed as residual activity at 1 uM using bio-4xCHKT as substrate in presence of 33P-ATP by ProQinase assay relative to control
[8] = tested on: Phosphatidylinositol 4,5-bisphosphate 3-kinase catalytic subunit alpha isoform (Homo sapiens), P42336 [Q546K]; experiment: Inhibition of PIK3CA Q546K mutant (unknown origin) assessed as remaining activity at 1 uM by Kinome scan method relative to control
[9] = target: Protein kinase C theta type (Homo sapiens) (UniProt Q04759); experiment: Inhibition of human PKCtheta assessed as residual activity at 1 uM using 3xChocktide-PKC(19-31) as substrate in presence of 33P-ATP by ProQinase assay relative to control
[10] = target: Mast/stem cell growth factor receptor Kit (Homo sapiens) (UniProt P10721); experiment: Inhibition of KIT (unknown origin) assessed as remaining activity at 1 uM by Kinome scan method relative to control
[11] = target: T2, Myotonin-protein kinase (Homo sapiens) (UniProt Q09013); experiment: Inhibition of human DMPK assessed as residual activity at 1 uM using RBER-CHKtide as substrate in presence of 33P-ATP by ProQinase assay relative to control
T2 sequence (whole entry): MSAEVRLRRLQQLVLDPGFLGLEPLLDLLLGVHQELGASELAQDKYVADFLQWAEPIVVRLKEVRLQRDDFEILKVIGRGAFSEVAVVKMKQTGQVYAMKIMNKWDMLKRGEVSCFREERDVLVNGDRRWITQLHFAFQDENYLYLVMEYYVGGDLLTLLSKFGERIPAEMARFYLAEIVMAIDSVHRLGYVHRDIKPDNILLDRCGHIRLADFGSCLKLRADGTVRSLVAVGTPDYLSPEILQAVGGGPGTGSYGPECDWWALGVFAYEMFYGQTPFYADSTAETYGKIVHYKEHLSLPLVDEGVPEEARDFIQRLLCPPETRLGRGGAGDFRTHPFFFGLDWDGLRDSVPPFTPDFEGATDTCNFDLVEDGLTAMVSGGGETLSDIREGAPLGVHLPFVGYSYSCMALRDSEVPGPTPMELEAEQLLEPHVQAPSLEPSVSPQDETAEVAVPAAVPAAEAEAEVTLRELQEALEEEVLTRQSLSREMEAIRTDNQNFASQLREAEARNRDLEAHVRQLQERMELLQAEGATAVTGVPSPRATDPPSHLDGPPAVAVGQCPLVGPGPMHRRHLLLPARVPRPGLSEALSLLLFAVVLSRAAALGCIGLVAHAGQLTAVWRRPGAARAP

[12] = target: Receptor-interacting serine/threonine-protein kinase 2 (Homo sapiens) (UniProt O43353); experiment: Inhibition of human RIPK2 assessed as residual activity at 1 uM using RBER-CHKtide as substrate in presence of 33P-ATP by ProQinase assay relative to control
[13] = target: Protein kinase C iota type (Homo sapiens) (UniProt P41743); experiment: Inhibition of human PKCiota assessed as residual activity at 1 uM using 3xChocktide-PKC(19-31) as substrate in presence of 33P-ATP by ProQinase assay relative to control
[14] = target: Mitogen-activated protein kinase kinase kinase 9 (Homo sapiens) (UniProt P80192); experiment: Inhibition of MLK1 (unknown origin) assessed as remaining activity at 1 uM by Kinome scan method relative to control
Sequence of Mitogen-activated protein kinase kinase kinase 9 (Homo sapiens) (P80192 whole entry, looked up): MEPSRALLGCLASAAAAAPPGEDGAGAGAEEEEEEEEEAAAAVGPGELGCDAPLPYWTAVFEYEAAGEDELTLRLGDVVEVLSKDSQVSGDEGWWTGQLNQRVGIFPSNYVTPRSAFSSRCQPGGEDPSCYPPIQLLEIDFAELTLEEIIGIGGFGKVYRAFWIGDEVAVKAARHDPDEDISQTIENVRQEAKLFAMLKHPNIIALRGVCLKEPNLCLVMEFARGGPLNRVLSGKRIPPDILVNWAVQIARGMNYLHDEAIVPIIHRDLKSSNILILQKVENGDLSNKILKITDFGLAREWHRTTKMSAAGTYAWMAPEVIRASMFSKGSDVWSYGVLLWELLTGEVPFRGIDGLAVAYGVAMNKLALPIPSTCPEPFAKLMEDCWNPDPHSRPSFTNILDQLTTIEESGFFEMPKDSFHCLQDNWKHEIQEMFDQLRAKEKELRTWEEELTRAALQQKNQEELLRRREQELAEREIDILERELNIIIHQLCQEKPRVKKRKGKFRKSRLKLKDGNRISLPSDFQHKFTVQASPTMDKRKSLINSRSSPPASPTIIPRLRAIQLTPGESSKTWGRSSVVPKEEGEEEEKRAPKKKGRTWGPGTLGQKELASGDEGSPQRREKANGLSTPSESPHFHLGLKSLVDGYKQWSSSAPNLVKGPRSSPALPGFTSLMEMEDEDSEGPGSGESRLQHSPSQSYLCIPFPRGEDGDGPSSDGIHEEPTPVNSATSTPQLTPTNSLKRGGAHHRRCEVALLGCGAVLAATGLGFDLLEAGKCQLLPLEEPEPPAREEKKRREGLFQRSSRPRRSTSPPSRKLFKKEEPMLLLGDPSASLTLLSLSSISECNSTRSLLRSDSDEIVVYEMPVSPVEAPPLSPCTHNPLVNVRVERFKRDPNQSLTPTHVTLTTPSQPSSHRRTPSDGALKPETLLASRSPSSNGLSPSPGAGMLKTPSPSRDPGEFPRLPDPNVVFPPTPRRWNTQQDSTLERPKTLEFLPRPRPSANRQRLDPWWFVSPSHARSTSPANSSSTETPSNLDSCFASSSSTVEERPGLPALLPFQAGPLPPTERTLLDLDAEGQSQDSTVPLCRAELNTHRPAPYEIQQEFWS

Sequence of Ephrin type-A receptor 5 (Homo sapiens) (P54756 whole entry): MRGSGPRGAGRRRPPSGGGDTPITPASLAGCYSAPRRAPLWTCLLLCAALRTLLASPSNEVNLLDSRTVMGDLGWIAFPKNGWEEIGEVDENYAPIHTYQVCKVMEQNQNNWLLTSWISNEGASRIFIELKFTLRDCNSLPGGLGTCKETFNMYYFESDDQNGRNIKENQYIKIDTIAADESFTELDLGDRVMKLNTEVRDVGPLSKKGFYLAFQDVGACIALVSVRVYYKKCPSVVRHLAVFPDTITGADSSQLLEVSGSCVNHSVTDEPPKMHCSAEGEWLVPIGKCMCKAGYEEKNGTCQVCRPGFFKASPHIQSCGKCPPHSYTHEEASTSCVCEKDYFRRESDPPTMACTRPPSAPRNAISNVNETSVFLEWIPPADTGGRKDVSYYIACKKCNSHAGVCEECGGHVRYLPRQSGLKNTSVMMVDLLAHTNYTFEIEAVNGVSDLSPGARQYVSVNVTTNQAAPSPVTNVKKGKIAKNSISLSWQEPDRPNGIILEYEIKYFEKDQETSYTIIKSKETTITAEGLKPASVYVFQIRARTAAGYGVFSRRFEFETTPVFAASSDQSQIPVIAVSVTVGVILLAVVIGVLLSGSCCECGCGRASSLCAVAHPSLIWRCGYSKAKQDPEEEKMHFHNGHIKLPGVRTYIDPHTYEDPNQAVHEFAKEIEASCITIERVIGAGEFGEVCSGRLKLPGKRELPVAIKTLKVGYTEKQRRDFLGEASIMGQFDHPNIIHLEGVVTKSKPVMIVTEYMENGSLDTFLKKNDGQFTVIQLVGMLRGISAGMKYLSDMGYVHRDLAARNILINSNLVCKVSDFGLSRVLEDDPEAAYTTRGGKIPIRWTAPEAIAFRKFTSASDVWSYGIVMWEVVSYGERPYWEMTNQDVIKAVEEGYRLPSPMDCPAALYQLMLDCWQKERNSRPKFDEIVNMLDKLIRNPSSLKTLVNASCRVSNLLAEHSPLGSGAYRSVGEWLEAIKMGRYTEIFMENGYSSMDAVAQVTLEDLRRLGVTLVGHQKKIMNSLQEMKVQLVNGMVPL
Sequence of Glycogen synthase kinase-3 beta (Homo sapiens) (P49841 whole entry, looked up): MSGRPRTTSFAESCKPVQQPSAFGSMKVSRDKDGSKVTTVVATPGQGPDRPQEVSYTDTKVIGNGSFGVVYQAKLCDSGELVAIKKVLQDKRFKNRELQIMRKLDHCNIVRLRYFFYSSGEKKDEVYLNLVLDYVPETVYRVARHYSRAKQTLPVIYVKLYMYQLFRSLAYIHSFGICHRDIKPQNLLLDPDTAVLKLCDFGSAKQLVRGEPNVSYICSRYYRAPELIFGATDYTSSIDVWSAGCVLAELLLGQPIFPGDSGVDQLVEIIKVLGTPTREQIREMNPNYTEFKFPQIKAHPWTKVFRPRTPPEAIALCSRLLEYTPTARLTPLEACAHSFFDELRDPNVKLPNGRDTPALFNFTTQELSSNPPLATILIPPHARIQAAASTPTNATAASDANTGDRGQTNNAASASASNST
Sequence of Mast/stem cell growth factor receptor Kit (Homo sapiens) (P10721 whole entry): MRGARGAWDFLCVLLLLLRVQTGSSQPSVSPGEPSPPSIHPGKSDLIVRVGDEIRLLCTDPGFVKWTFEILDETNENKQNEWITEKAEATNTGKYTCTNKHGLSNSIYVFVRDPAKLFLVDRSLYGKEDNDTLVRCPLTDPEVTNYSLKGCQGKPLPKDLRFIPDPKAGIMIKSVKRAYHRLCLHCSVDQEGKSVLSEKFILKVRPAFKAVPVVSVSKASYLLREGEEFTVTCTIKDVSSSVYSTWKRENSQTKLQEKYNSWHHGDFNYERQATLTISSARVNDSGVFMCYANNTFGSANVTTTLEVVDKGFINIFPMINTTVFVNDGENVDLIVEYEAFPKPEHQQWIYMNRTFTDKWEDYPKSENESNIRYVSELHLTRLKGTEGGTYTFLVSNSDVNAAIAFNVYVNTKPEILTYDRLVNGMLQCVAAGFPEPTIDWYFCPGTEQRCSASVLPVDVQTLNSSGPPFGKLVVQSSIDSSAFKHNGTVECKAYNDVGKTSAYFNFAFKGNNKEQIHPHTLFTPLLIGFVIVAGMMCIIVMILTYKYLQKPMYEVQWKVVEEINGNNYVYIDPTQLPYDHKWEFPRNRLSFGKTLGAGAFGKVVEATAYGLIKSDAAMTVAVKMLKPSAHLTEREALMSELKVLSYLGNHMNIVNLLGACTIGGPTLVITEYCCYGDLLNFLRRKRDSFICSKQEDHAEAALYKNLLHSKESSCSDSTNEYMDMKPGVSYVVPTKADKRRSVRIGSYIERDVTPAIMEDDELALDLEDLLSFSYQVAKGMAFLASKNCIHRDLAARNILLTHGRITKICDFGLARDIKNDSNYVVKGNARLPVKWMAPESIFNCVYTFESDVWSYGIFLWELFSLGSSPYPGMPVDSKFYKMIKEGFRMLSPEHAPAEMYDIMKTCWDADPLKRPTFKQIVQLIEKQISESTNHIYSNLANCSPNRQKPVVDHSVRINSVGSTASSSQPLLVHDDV
Sequence of Protein kinase C theta type (Homo sapiens) (Q04759 whole entry, looked up): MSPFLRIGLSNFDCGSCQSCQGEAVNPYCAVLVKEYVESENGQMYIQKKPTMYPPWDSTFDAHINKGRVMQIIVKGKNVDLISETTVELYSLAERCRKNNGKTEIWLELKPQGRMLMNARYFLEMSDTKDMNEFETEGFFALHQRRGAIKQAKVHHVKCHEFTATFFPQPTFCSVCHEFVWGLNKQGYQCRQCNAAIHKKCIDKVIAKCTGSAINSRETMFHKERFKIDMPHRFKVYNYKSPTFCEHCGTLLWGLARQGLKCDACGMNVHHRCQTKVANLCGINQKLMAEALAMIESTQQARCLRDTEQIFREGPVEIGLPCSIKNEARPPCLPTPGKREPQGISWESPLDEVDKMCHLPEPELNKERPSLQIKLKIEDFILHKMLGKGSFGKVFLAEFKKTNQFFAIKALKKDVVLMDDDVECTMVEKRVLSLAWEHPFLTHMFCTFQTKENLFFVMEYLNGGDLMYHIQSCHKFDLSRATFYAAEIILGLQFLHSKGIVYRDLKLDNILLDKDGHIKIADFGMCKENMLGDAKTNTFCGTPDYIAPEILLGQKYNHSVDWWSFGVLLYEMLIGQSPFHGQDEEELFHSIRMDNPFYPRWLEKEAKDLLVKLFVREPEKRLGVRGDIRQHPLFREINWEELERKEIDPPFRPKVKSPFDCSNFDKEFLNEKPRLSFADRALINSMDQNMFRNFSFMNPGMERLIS
Sequence of Protein kinase C iota type (Homo sapiens) (P41743 whole entry): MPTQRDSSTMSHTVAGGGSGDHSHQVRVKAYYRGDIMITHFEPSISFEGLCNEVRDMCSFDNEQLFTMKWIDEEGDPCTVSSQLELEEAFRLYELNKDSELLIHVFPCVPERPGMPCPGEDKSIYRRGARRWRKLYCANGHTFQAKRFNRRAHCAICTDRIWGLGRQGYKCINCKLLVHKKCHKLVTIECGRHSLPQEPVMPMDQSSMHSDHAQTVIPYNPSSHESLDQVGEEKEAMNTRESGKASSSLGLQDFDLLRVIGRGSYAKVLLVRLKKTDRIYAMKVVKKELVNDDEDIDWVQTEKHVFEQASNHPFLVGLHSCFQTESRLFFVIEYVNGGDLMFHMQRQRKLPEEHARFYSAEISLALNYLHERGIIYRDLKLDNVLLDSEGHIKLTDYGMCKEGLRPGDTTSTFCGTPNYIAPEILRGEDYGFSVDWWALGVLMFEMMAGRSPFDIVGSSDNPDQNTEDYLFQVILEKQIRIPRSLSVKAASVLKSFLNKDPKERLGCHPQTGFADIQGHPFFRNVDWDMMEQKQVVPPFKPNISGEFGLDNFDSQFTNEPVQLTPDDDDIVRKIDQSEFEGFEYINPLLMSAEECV

O=C1c2ccc(Nc3ccc(F)cc3F)cc2CCc2ccc(OC[C@H](O)CO)cc21 [Skepinone-L]
Activity [1]: 115%
Activity [2]: 98%
Activity [3]: 97%
Activity [4]: 102%
Activity [5]: 93%
IC50 [6]: 650 nM
Activity [7]: 101%
Activity [8]: 100%
Activity [9]: 99%
Activity [10]: 93%
Activity [11]: 99%
Activity [12]: 77%
Activity [13]: 91%
Activity [14]: 100%
